Data from patent US7041785B1, “B1-bradykinin receptor antagonists and use thereof” (Université de Sherbrooke, priority 1996, dated 2006).
Non-standard residues stand in square brackets, D forms with d. Residues, ends and D or L forms follow the SMILES beside them. d2Nal = N[C@H](Cc1ccc2ccccc2c1)C(=O)O; dTic = O=C(O)[C@H]1Cc2ccccc2CN1; NMeA = CN[C@@H](C)C(=O)O

Tests used:
[1] = molecular target: T1, B1 receptor (Oryctolagus cuniculus, UniProt P48748); assay: cell-based; conditions: for Kb: Rb.A. pA2, apparent affinity as antagonist vs desArg9BK; for Rb.A. α^E: residual agonistic activity at 10 μg/mL in comparison with desArg9BK
T1 sequence (P48748 1-352): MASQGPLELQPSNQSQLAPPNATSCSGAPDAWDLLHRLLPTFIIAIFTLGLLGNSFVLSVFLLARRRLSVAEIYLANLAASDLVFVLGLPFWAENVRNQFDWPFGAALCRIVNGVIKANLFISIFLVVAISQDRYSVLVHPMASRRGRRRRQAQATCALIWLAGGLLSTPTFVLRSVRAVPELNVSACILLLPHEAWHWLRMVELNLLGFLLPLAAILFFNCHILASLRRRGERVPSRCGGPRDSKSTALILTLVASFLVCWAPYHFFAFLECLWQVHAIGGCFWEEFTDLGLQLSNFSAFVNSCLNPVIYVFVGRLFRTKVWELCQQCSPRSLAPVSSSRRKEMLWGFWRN
Description: (§1) Tissues were taken from New Zealand white rabbits (1.5–2.5 kg) and Dunken Hartley guinea pigs (250–350 g) of either sex, killed by stunning and exsanguination. Umbilical cords were taken from healthy women 22–40 years old after spontaneous delivery at term. The rabbit jugular vein (RbJV), the guinea pig ileum (GPI), two preparations containing B2 receptors, the rabbit aorta (RbA) (B1 receptor) and the human umbilical vein (HUV), a mixed preparation containing both B1 and B2 receptors^10, were used. Helical strips of RbJV treated with 1 μmol/L of captopril to avoid peptide degradation by the angiotensin-converting enzyme (ACE), alias kininase II were prepared according to Gaudreau et al.^11 Helical strips of RbA devoid of endothelium were prepared according to Furchgott and Bhadrakom^12. Longitudinal segments of GPI were prepared with the procedure described by Rang^13. Helical strips of HUV were prepared according to Gobeil et al.^10. The tissues were suspended in 10-ml organ baths containing warm (37EC), oxygenated (95% O2–5% CO2) Krebs solution of the following composition in mmol/L; NaCl: 118.1; KCl: 4.7; CaCl26H2O: 2.5; KH2PO4: 1.2; MgSO47H2O: 1.18; NaHCO3: 25.0 and D-Glucose: 5.5. The RbA and the HUV were stretched with an initial tension of 2 g, whereas the RbJV and the GPI were loaded with 0.5 g. Changes of tension produced by the various agents were measured with Grass isometric transducers (model FT 03C, Grass Instrument Co., Quincy, Mass.). […] Before testing the drugs, the tissues were allowed to equilibrate for 60–120 min during which time the tissues were repeatedly washed and the tension readjusted every 15 min.
(§2) At the beginning of each experiment, a submaximal dose of bradykinin (BK) (9 nmol/L), was applied repeatedly on the RbJV, the GPI or the HUV to ensure that tissues responded with stable contractions. […] A similar protocol was used for the HUV.
(§3) Repeated applications of a singl and double concentration of BK (on RbJV, GPI and HUV) and of desArg^9BK (RbA and HUV) were made in the absence and in presence of the various peptides to evaluate their apparent affinities as antagonists, in terms of pA2 (-log10 of the molar concentration of antagonist that reduces the effect of a double concentration of agonist to that of a single one)^14. The antagonists were applied 10 min before measuring the myotropic effects of either BK (the B2 receptor agonist) or desArg^9BK (the B1 receptor agonist). […] All kinin antagonists were initially applied to tissues at concentration of 10 μg/mL to measure their potential agonistic activities (α^E) in comparison with BK (in the B2 receptor preparations) or desArg^9BK (in the B1 receptor preparations).

[2] = molecular target: T2, B2 receptor (Cavia porcellus, UniProt O70526); assay: cell-based; conditions: for G.P.I. pA2: vs BK, Inactive = no detectable antagonistic effect at ≦ 10 μg/ml, F.ag. full agonist, P.ag. partial agonist; for G.P.I. α^E: residual agonistic activity at 10 μg/mL in comparison with BK
T2 sequence (O70526 1-372): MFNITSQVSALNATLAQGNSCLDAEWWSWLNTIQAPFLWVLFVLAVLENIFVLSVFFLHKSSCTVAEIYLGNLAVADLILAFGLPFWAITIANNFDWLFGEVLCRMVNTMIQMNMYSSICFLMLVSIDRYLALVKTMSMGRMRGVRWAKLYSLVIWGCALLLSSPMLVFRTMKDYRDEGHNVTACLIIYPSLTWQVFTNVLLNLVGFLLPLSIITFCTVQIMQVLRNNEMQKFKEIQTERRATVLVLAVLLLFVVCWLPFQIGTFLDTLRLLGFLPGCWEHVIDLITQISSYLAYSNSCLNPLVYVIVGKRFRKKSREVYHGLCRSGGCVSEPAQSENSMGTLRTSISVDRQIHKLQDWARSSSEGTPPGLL
Description: as §1, §2, §3

[3] = test system: T3, angiotensin-converting enzyme (ACE); assay: Metabolic degradation by purified angiotensin-converting enzyme, HPLC analysis; type: in vitro ADME, rabbit; conditions: rabbit, isolated enzyme ace, pH 7.5
T3 construct: purified angiotensin-converting enzyme (ACE) from rabbit lungs; purchased Sigma, St-Louis, Mo; host or cells: purified from rabbit lungs
Procedure: The metabolic stability of various kinin-related peptides was evaluated by incubating the peptide in the presence of purified angiotensin-converting enzyme (ACE) from rabbit lungs (purchased from Sigma, St-Louis, Mo.) dissolved in phosphate buffered saline (PBS) (50 mmol/L, pH 7.5 containing 300 mmoL/L NaCl); the final concentration of enzyme was 45 μg/mL. The experimental protocol for the measurement of ACE activity has been described elsewhere^15,16. Briefly, 200 μmol/L of peptides (40 μL) were placed in a PBS buffer and incubated for 5 min at 37EC before adding 8.5 μL of ACE (total volume of the reaction medium; 190 μL). Samples were withdrawn at 30 min intervals, immersed in boiling water for 5 min, then cooled on ice and centrifuged (5 min) before proceeding to analysis of peptides by high pressure liquid chromatography (HPLC). Results of ACE metabolism are expressed in percent of kinin degradation following the incubation (30 min) of kinin substrates with the enzyme.
Pure peptides and metabolic products were analysed by reverse-phas HPLC on a C18 μBondapak column (4.6 mm×25 cm) (Waters) of 10-μm particle size. The peptides and their fragments were eluted at the rate of 2.0 mL/min. with a linear gradient ranging from 5 to 65% of acetonitrile/TFA 0.05%/water over 20 min. at room temperature. The elution positions of these peptides were determined by following the absorbance at 214 nm. For each assay, 50 μL of the reaction medium (treated or not with ACE) were extracted and injected into the column. Concentrations of the peaks products, different from the peaks of the peptide substrate, were estimated using a computer software program (Baseline 810; Waters) that controlled also all the chromatography operations. Isolated metabolites and substrates were collected and identified by Electrospray mass spectrometry (positive mode).

[4] = molecular target: T4, B2 receptor (Oryctolagus cuniculus, UniProt Q28642); conditions: vs BK; captopril 1 μmol/L; Inactive = no detectable antagonistic effect at ≦ 10 μg/ml
T4 sequence (Q28642 1-367): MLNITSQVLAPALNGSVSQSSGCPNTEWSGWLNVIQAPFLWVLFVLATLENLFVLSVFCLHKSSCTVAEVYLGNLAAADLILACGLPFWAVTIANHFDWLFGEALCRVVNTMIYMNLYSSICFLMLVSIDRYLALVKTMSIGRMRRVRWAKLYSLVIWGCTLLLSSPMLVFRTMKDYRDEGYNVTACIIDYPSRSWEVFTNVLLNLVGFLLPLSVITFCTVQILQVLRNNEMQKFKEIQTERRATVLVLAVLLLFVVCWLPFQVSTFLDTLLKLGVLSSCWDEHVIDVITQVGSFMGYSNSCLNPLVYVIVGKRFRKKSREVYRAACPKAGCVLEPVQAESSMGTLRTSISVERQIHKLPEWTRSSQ

[5] = molecular target: T4, B2 receptor; assay: cell-based; conditions: residual agonistic activity at 10 μg/mL in comparison with BK
Description: as §1, §2, §3

[6] = antagonist applied 10 min before, Inactive = no detectable antagonistic effect at ≦ 10 μg/ml

| Rb.A. pA2 ([1]; apparent affinity as antagonist vs desArg9BK, antagonist applied 10 min before, Inactive = no detectable antagonistic effect at ≦ 10 μg/ml) | Molecule | Kb [1, 6] | G.P.I. pA2 [2] | metabolised at 0.5 h, 42.1 μmol/L [3] | Rb.J.V. pA2 [4] | Kb [2] | Rb.A. α^E [1] | G.P.I. α^E [2] | Rb.J.V. α^E [5] | EC50 [2] | metabolised at 0.5 h [3] |
| --- | --- | --- | --- | --- | --- | --- | --- | --- | --- | --- | --- |
|  | CC(C)C[C@H](NC(=O)[C@@H]1CCCN1C(=O)[C@H](CO)NC(=O)[C@H](Cc1ccccc1)NC(=O)CNC(=O)[C@@H]1C[C@@H](O)CN1C(=O)[C@@H]1CCCN1C(=O)[C@H](CCCNC(=N)N)NC(=O)[C@@H](N)CCCCN)C(=O)O [Compound 3, Lys(Hyp^3, Leu^8)desArg^9BK] | 6.92 nM | Inactive | 40 ± 3% | Inactive |  |  |  |  |  |  |
|  | CC(C)C[C@H](NC(=O)[C@@H]1CCCN1C(=O)[C@H](CO)NC(=O)[C@H](Cc1ccccc1)NC(=O)CNC(=O)[C@@H]1C[C@@H](O)CN1C(=O)[C@@H]1CCCN1C(=O)[C@H](CCCNC(=N)N)NC(=O)[C@H](N)CCCNC(=N)N)C(=O)O [Compound 4, D-Arg(Hyp^3, Leu^8)desArg^9BK] | 339 nM |  | 83 ± 2% | Inactive | > 9550 nM |  |  |  |  |  |
|  | CC(=O)N[C@@H](CCCCN)C(=O)N[C@@H](CCCNC(=N)N)C(=O)N1CCC[C@H]1C(=O)N1C[C@H](O)C[C@H]1C(=O)NCC(=O)N[C@@H](Cc1ccccc1)C(=O)N[C@@H](CO)C(=O)N1CCC[C@H]1C(=O)N[C@@H](CC(C)C)C(=O)O [Compound 5, AcLys(Hyp^3, Leu^8)desArg^9BK] | 178 nM |  | 66 ± 1% | Inactive | > 9550 nM | 0 | 0.30 | 0.03 |  |  |
|  | CC(=O)N[C@@H](CCCCN)C(=O)N[C@@H](CCCNC(=N)N)C(=O)N1CCC[C@H]1C(=O)N1CCC[C@H]1C(=O)NCC(=O)N[C@@H](Cc1ccccc1)C(=O)N[C@@H](CO)C(=O)N1Cc2ccccc2C[C@@H]1C(=O)N[C@@H](CC(C)C)C(=O)O [Compound 11, AcLys(D-Tic^7, Leu^8)desArg^9BK] (Ac-KRPPGFS[dTic]L-OH; C-terminus assumed) | 6760 nM |  |  | Inactive |  | 0 |  | 0.37 | 1410 nM | 0% |
|  | CC(=O)N[C@@H](CCCCN)C(=O)N[C@@H](CCCNC(=N)N)C(=O)N1CCC[C@H]1C(=O)N1CCC[C@H]1C(=O)NCC(=O)N[C@@H](Cc1ccccc1)C(=O)N(C)[C@@H](C)C(=O)N1CCC[C@H]1C(=O)N[C@@H](CC(C)C)C(=O)O [Compound 21, AcLys(N-MeAla^6, Leu^8)desArg^9BK, reference compound] (Ac-KRPPGF[NMeA]PL-OH; C-terminus assumed) | 282 nM | Inactive | 0% | Inactive |  | 0.01 | 0.19 | 0 |  |  |
|  | CC[C@H](C)[C@H](NC(=O)[C@@H](Cc1ccc2ccccc2c1)NC(=O)[C@H](C)N(C)C(=O)[C@H](Cc1ccccc1)NC(=O)CNC(=O)[C@@H]1CCCN1C(=O)[C@@H]1CCCN1C(=O)[C@H](CCCNC(=N)N)NC(=O)[C@H](CCCCN)NC(C)=O)C(=O)O [Compound 22, AcLys(N-MeAla^6, D-βNal^7, IIe^8)desArg^9BK] (Ac-KRPPGF[NMeA][d2Nal]I-OH; C-terminus assumed) | 537 nM | P.ag. | 0% | Inactive |  | 0 |  | 0.03 |  |  |
| 7.94 ± 0.06 | D-Arg(Hyp^3, D-Hyp^7(trans propyl), Oic^8)desArg^9BK [Compound 33, reference compound] |  |  |  | 6.99 ± 0.04 |  | 0 | 0 | 0 |  |  |
